What was measured:
Format in all cases: cell-based, human
SNU-5 cells = assay: 3-day in vitro cytotoxicity assay (nuclear counts); settings: 3-day treatment
Experimental: (§1) To determine the relative cell-killing potency of anti-MET antibody drug conjugates (ADCs) described herein, cell-killing assays were run on multiple cells lines expressing varying levels of endogenous MET.
(§2) To measure in vitro cytotoxicity of anti-MET ADCs, nuclear counts after a 3 or 6-day treatment with the ADCs was assessed. […] For cell viability curves, serially diluted ADCs, unconjugated antibodies, or free payloads were added to the cells at final concentrations ranging from 100 nM to 0.01 nM (based on toxin concentration) and incubated for 3 or 6 days at 37° C. in 5% CO2. Cells were subsequently treated with 3 ug/ml Hoechst 33342 nuclear stain (Invitrogen, #H3570) while being fixed with 4% formaldehyde. Images were acquired on the ImageXpress micro XL (Molecular Devices, Sunnyvale, Calif.) and nuclear counts were determined via MetaXpress image analysis software (Molecular Devices, Sunnyvale, Calif.). Background nuclear counts from cells treated with […] digitonin were subtracted from all wells and viability was expressed as a percentage of the untreated controls. IC50 values were determined from a four-parameter logistic equation over a 10-point response curve (GraphPad Prism). The untreated condition for each dose-response curve is also included in the analysis and is represented as the lowest dose.

EBC-1 cells [1] = assay: 3-day in vitro cytotoxicity assay (nuclear counts); settings: 3-day treatment
Experimental: as §1, §2

MKN-45 cells = assay: 3-day in vitro cytotoxicity assay (nuclear counts); settings: 3-day treatment
Experimental: as §1, §2

NCI-H1993 cells = assay: 3-day in vitro cytotoxicity assay (nuclear counts); settings: 3-day treatment
Experimental: as §1, §2

T47D cells [2] = assay: 6-day in vitro cytotoxicity assay (nuclear counts); settings: 6-day treatment
Experimental: as §1, §2

A549 cells [3] = assay: 6-day in vitro cytotoxicity assay (nuclear counts); settings: 6-day treatment
Experimental: as §1, §2

EBC-1 cells [4] = assay: 6-day in vitro cytotoxicity assay (nuclear counts); settings: 6-day treatment
Experimental: as §1, §2

Hs746T cells [5] = assay: 6-day in vitro cytotoxicity assay (nuclear counts); settings: 6-day treatment
Experimental: as §1, §2

T47D cells [6] = assay: 3-day in vitro cytotoxicity assay (nuclear counts); settings: 3-day treatment
Experimental: as §1, §2

MDA-MB-231 cells = assay: 3-day in vitro cytotoxicity assay (nuclear counts); settings: 3-day treatment
Experimental: as §1, §2

A549 cells [7] = assay: 3-day in vitro cytotoxicity assay (nuclear counts); settings: 3-day treatment
Experimental: as §1, §2

J.RT3 cells = assay: 3-day in vitro cytotoxicity assay (nuclear counts); settings: 3-day treatment
Experimental: as §1, §2

Hs746T cells [8] = assay: 3-day in vitro cytotoxicity assay (nuclear counts); settings: 3-day treatment
Experimental: as §1, §2

U87MG cells = assay: 3-day in vitro cytotoxicity assay (nuclear counts); settings: 3-day treatment
Experimental: as §1, §2

HEK293 cells = assay: 3-day in vitro cytotoxicity assay (nuclear counts); settings: 3-day treatment
Experimental: as §1, §2

[9] = tested on: MET pathway in NCI-H596 cells; assay: Immunoblot of MET and ERK phosphorylation, time course; settings: HGF 50 ng/ml
Experimental: 250,000 NCI-H596 cells were seeded in a 12 well plate and cultured in RPMI Media supplemented with 10% FBS. […] The cells were subsequently incubated in 5% CO2 at 37° C. After 0, 2, 6 or 18 hours, cell lysates were prepared, protein content was normalized and immunoblot analysis was performed. MET phosphorylation and ERK phosphorylation were quantified with the ImageJ image processing program (T. Collins, BioTechniques 43: S25-S30, 2007). Phosphorylation levels were normalized to the Tubulin loading control and are expressed as fold change relative to control treatment.

[10] = tested on: MET (c-Met) in HEK293/SRE-Luc cells; assay: SRE-luciferase reporter bioassay, blocking of HGF-mediated MET activation; settings: antibodies plus HGF ligand; result in words
Text: (§3) The ability of anti-MET antibodies to block hepatocyte growth factor (HGF)-mediated MET activation was examined in a luciferase-based reporter assay. The growth factor HGF binds to the extracellular domain of its receptor c-Met (MET), triggering rapid homodimerization and activating several downstream signaling cascades. The anti-MET antibodies tested in this example were bivalent monospecific binders of MET, or anti-MET “bispecifics”, in which each arm of the bispecific antibody bound to a different and distinct epitope on MET. […]
(§4) Next, 2.0×10^5 HEK293/SRE-Luc cells were seeded in luciferase assay media in 96 well plates and incubated overnight at 37° C. in 5% CO2. […] Separately, the ability of the antibodies to activate c-Met in the absence of ligand was also assessed.
(§5) Luciferase activity was detected using the ONE-Glo™ Luciferase Assay System (Promega, Madison, Wis.), and emitted light was measured on a Victor or Envision luminometer (Perkin Elmer, Shelton, Conn.) and expressed as relative light units (RLUs). EC50/IC50 values were determined from a four-parameter logistic equation over a 12-point response curve using […] […]

[11] = tested on: MET (c-Met) in HEK293/SRE-Luc cells; assay: SRE-luciferase reporter bioassay, ligand (HGF)-independent MET activation; settings: antibody alone at various concentrations; result in words
Text: as §3, §4, §5

Question: For `COc1cc2cc(c1Cl)N(C)C(=O)CC(OC(=O)C(C)N(C)C(=O)CCSSC)C1(C)OC1C(C)C1CC(O)(NC(=O)O1)C(OC)C=CC=C(C)C2` (centres unmarked) [DM1 (MeS-DM1)], which IC50 (SNU-5 cells) is on record?
Answer: 1.22 nM

Question: What about the “Max % Kill” value (SNU-5 cells) of the same compound?
Answer: 99%

Question: What about the IC50 (EBC-1 cells [1]) of the same compound?
Answer: 2.22 nM

Question: And the “Max % Kill” value (EBC-1 cells [1])?
Answer: 90%

Question: What about the IC50 (MKN-45 cells) of the same compound?
Answer: 2.73 nM

Question: What about the “Max % Kill” value (MKN-45 cells) of the same compound?
Answer: 85%

Question: And the IC50 (NCI-H1993 cells)?
Answer: 2.86 nM

Question: And the “Max % Kill” value (NCI-H1993 cells)?
Answer: 81%

Question: What about the IC50 (T47D cells [2]) of the same compound?
Answer: 0.24 nM

Question: What about the “Max % Kill” value (T47D cells [2]) of the same compound?
Answer: 96%

Question: And the IC50 (A549 cells [3])?
Answer: 0.49 nM

Question: What about the “Max % Kill” value (A549 cells [3]) of the same compound?
Answer: 90%

Question: What about the IC50 (EBC-1 cells [4]) of the same compound?
Answer: 0.12 nM

Question: What about the “Max % Kill” value (EBC-1 cells [4]) of the same compound?
Answer: 62%

Question: And the IC50 (Hs746T cells [5])?
Answer: 1.39 nM

Question: What about the “Max % Kill” value (Hs746T cells [5]) of the same compound?
Answer: 88%

Question: `COc1cc2cc(c1Cl)N(C)C(=O)CC(OC(=O)C(C)N(C)C(=O)CCS)C1(C)OC1C(C)C1CC(O)(NC(=O)O1)C(OC)C=CC=C(C)C2` (centres unmarked) [DM1 (free drug)] was tested. Which IC50 (T47D cells [6]) did it give?
Answer: 1.33 nM

Question: What about the “Max % Kill” value (T47D cells [6]) of the same compound?
Answer: 91%

Question: And the IC50 (MDA-MB-231 cells)?
Answer: 1.53 nM

Question: What about the “Max % Kill” value (MDA-MB-231 cells) of the same compound?
Answer: 89%

Question: What about the IC50 (A549 cells [7]) of the same compound?
Answer: 2.56 nM

Question: And the “Max % Kill” value (A549 cells [7])?
Answer: 97%

Question: What about the IC50 (J.RT3 cells) of the same compound?
Answer: 0.07 nM

Question: And the “Max % Kill” value (J.RT3 cells)?
Answer: 100%

Question: What about the IC50 (Hs746T cells [8]) of the same compound?
Answer: 1.46 nM

Question: And the “Max % Kill” value (Hs746T cells [8])?
Answer: 81%

Question: And the IC50 (U87MG cells)?
Answer: 0.61 nM

Question: What about the “Max % Kill” value (U87MG cells) of the same compound?
Answer: 89%

Question: And the IC50 (HEK293 cells)?
Answer: 0.15 nM

Question: What about the “Max % Kill” value (HEK293 cells) of the same compound?
Answer: 95%

Question: Which results are given for `CNCCC(=O)N(C)C(C)C(=O)OC1CC(=O)N(C)c2cc(cc(OC)c2Cl)CC(C)=CC=CC(OC)C2(O)CC(OC(=O)N2)C(C)C2OC12C` (centres unmarked) [M24 (Maytansinoid B released payload)]?
Answer: IC50 (T47D cells [2]): > 100 nM; Max % Kill (T47D cells [2]): 0%; IC50 (A549 cells [3]): > 100 nM; Max % Kill (A549 cells [3]): 10%; IC50 (EBC-1 cells [4]): > 100 nM; Max % Kill (EBC-1 cells [4]): 32%; IC50 (Hs746T cells [5]): > 100 nM; Max % Kill (Hs746T cells [5]): 10%

Question: How did the “time of peak activation of MET and ERK” value [9] turn out when “HGF: hepatocyte growth factor, the MET ligand / MET-agonist [reference compound]” was run?
Answer: 2 h

Question: How did the “blocking of HGF-dependent MET activation (SRE-luciferase, FIG. 3B, FIG. 4B)” value [10] turn out when “monovalent anti-MET antibody: monovalent MET antibody generated using the heavy and light chain variable sequences of MetMab (U.S. Pat. No. 7,892,550 B2) [reference compound]” was run?
Answer: showed greater HGF blocking

Question: What about the “MET agonist activity in the absence of HGF ligand (SRE-luciferase, FIG. 3A, FIG. 4A)” value [11] of the same compound?
Answer: neither the monovalent nor the MET×MET bispecific antibody showed MET agonist activity

Source: US12545735B2, “Anti-met antibodies, bispecific antigen binding molecules that bind met, and methods of use thereof” (REGENERON PHARMACEUTICALS, INC., priority 2016, dated 2026)
